For orientation: Kd means the free concentration of one partner at which half of the binding sites on the other are occupied at equilibrium, for simple one-to-one binding. Usually pKd stands for −log10 of the Kd, conventionally taken in molar units. Read a low pKd as a high Kd.

Molecules are shown by their SMILES. pKd: −log10 of the molar value. Active and inactive are the calls of the source. For most assays here, no stated cut-off is given here; in the data, actives have a measured Kd and inactives only a lower limit. Where only a bound is given, the exact number is not on record here.

Test [1] concerns the target Dual specificity protein kinase CLK2 (Homo sapiens, UniProt P49760).
For test [2], the target named is T1, Serine/threonine-protein kinase ICK (Homo sapiens, UniProt Q9UPZ9).
T1 sequence (Q9UPZ9 whole entry): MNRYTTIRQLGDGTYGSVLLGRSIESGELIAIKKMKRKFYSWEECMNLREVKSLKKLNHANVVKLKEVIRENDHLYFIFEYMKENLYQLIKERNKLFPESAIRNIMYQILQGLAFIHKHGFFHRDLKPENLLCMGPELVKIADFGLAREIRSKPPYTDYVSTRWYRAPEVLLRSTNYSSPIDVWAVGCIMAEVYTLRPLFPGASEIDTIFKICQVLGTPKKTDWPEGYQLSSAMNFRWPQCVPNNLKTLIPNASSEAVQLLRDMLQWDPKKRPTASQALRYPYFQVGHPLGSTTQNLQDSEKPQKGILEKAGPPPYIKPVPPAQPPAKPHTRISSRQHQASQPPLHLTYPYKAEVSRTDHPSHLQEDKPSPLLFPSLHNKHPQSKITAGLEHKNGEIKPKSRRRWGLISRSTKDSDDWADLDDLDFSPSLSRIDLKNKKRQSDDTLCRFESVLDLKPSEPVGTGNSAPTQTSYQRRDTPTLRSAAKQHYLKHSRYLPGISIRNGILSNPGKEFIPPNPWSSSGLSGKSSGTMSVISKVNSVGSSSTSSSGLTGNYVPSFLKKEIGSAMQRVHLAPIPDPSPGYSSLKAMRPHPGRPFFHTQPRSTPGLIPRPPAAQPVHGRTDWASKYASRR

For test [3], the target named is T2, MAP/microtubule affinity-regulating kinase 4 (Homo sapiens, UniProt Q96L34).
T2 sequence (Q96L34 whole entry): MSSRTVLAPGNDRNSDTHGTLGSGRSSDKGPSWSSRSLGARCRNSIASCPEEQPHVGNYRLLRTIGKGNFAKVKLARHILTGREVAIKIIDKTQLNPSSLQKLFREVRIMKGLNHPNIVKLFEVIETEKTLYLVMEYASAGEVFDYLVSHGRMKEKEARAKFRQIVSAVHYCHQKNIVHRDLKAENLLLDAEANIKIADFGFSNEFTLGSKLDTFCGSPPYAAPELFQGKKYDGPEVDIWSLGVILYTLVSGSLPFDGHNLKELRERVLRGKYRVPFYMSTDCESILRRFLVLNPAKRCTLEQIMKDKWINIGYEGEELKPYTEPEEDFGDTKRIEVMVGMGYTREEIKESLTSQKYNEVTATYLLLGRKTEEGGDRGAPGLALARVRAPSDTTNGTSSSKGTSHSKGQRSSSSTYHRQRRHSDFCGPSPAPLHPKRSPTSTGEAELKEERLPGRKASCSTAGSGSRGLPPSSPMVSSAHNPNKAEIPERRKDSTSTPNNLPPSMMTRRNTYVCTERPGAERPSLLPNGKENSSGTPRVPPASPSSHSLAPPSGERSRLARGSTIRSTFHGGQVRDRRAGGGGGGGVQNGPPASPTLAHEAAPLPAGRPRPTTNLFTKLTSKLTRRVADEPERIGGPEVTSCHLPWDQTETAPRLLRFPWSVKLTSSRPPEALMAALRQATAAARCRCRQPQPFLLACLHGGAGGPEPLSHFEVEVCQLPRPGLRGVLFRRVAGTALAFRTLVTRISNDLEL

For test [4], the target named is Myosin light chain kinase, smooth muscle (Homo sapiens, UniProt Q15746).
Test [5] concerns the target NADH dehydrogenase [ubiquinone] 1 alpha subcomplex subunit 13 (Homo sapiens, UniProt Q9P0J0).
The target in test [6] is Protein-tyrosine kinase 6 (Homo sapiens, UniProt Q13882).
The next test addresses T3, Septin-9 (Homo sapiens, UniProt Q9UHD8).
T3 sequence (Q9UHD8 whole entry): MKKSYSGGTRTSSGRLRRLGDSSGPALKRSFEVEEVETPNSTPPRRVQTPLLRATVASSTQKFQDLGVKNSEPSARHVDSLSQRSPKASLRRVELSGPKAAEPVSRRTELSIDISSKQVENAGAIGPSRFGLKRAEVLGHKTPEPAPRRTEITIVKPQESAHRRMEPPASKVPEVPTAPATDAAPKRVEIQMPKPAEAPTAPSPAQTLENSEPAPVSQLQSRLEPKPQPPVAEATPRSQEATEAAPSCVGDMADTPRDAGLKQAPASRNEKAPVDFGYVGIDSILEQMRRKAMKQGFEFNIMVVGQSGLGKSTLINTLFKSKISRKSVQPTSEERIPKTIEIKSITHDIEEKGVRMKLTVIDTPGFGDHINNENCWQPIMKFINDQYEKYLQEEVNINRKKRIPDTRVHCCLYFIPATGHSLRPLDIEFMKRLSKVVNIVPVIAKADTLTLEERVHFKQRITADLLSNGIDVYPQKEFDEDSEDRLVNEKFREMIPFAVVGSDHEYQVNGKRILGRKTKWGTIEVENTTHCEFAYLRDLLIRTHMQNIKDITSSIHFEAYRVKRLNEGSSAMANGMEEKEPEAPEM

The target in the next test is T4, ADP/ATP translocase 3 (Homo sapiens, UniProt P12236).
T4 sequence (P12236 whole entry): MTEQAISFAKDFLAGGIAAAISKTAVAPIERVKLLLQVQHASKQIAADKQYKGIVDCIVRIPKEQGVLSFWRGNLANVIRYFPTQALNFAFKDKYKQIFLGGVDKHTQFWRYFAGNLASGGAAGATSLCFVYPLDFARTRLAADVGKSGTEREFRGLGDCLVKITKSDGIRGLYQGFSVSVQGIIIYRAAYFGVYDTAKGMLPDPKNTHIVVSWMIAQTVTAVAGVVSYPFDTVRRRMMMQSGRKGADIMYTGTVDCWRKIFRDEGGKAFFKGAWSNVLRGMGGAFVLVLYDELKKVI

Test [7] deals with STE20-like serine/threonine-protein kinase (Homo sapiens, UniProt Q9H2G2).
The target of the next test is TGF-beta receptor type-2 (Homo sapiens, UniProt P37173).
Sequence of TGF-beta receptor type-2 (P37173 whole entry): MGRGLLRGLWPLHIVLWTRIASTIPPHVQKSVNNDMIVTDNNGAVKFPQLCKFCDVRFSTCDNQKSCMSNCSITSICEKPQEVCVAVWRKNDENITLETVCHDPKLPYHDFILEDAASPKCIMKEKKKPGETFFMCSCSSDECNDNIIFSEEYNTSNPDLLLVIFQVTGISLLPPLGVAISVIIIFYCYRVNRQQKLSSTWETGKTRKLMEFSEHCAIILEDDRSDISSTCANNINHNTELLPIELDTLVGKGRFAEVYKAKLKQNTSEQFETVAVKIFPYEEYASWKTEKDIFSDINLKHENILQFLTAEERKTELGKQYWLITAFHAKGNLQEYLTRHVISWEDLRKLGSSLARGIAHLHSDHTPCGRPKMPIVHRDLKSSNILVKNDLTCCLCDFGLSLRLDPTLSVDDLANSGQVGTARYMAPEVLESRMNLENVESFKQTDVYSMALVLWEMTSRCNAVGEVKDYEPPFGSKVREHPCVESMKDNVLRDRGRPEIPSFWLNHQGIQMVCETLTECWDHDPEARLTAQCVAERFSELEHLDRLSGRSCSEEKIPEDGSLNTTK

Sequence of STE20-like serine/threonine-protein kinase (Q9H2G2 whole entry): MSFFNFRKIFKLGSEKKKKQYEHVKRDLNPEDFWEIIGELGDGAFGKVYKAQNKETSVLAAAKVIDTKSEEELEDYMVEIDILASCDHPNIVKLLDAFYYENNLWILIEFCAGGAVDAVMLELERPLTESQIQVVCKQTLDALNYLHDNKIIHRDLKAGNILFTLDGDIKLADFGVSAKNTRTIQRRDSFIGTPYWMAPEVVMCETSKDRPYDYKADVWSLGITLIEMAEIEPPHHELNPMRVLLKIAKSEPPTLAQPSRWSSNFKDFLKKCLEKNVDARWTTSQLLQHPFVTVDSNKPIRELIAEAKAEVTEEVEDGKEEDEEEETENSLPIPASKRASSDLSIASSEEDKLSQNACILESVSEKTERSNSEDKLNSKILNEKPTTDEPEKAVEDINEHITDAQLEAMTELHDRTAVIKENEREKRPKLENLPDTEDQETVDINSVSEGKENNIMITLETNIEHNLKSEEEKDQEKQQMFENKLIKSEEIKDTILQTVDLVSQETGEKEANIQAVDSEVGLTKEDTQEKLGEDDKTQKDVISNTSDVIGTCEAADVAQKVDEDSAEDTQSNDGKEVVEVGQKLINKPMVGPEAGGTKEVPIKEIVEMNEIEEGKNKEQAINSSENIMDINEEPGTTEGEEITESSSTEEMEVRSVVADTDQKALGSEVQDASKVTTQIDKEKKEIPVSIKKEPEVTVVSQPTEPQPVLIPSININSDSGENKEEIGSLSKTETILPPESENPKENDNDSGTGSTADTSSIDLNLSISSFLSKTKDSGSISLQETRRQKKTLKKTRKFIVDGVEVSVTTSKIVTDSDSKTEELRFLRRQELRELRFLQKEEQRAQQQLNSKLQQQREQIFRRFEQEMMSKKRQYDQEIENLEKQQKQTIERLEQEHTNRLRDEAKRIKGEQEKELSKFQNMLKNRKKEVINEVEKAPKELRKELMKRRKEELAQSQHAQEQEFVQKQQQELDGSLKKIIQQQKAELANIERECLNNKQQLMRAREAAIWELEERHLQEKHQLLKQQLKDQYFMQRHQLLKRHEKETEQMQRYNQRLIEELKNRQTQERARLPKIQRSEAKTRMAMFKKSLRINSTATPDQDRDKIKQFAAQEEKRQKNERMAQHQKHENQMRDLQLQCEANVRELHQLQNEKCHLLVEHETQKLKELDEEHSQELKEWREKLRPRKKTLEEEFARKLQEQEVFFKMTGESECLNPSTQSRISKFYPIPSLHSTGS
Sequence of Protein-tyrosine kinase 6 (Q13882 whole entry): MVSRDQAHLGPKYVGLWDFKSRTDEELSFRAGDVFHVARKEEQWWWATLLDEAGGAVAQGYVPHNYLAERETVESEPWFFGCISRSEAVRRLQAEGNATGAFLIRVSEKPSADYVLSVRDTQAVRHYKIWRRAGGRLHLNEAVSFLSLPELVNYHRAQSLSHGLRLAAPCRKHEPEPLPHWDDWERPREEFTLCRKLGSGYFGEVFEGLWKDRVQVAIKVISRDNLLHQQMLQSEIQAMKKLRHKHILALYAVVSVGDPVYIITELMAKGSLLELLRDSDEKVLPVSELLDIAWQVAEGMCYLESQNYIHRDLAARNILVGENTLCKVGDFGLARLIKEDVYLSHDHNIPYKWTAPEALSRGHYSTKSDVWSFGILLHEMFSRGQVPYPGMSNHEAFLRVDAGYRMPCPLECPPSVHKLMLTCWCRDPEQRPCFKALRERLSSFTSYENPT
Sequence of Dual specificity protein kinase CLK2 (P49760 whole entry): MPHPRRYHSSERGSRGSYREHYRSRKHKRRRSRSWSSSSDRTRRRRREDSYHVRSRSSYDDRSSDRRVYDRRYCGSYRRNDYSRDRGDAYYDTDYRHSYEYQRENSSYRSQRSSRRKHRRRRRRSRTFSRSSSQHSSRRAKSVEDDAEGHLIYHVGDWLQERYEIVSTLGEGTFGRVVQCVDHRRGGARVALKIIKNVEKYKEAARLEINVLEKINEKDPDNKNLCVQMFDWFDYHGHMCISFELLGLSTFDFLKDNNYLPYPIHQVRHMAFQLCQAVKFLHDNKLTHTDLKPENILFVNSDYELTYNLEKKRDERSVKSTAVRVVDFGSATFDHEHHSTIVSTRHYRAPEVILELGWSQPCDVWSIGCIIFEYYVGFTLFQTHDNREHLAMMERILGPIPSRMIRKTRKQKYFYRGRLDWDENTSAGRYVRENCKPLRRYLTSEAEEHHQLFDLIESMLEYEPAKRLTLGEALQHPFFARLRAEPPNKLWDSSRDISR
Sequence of Myosin light chain kinase, smooth muscle (Q15746 whole entry): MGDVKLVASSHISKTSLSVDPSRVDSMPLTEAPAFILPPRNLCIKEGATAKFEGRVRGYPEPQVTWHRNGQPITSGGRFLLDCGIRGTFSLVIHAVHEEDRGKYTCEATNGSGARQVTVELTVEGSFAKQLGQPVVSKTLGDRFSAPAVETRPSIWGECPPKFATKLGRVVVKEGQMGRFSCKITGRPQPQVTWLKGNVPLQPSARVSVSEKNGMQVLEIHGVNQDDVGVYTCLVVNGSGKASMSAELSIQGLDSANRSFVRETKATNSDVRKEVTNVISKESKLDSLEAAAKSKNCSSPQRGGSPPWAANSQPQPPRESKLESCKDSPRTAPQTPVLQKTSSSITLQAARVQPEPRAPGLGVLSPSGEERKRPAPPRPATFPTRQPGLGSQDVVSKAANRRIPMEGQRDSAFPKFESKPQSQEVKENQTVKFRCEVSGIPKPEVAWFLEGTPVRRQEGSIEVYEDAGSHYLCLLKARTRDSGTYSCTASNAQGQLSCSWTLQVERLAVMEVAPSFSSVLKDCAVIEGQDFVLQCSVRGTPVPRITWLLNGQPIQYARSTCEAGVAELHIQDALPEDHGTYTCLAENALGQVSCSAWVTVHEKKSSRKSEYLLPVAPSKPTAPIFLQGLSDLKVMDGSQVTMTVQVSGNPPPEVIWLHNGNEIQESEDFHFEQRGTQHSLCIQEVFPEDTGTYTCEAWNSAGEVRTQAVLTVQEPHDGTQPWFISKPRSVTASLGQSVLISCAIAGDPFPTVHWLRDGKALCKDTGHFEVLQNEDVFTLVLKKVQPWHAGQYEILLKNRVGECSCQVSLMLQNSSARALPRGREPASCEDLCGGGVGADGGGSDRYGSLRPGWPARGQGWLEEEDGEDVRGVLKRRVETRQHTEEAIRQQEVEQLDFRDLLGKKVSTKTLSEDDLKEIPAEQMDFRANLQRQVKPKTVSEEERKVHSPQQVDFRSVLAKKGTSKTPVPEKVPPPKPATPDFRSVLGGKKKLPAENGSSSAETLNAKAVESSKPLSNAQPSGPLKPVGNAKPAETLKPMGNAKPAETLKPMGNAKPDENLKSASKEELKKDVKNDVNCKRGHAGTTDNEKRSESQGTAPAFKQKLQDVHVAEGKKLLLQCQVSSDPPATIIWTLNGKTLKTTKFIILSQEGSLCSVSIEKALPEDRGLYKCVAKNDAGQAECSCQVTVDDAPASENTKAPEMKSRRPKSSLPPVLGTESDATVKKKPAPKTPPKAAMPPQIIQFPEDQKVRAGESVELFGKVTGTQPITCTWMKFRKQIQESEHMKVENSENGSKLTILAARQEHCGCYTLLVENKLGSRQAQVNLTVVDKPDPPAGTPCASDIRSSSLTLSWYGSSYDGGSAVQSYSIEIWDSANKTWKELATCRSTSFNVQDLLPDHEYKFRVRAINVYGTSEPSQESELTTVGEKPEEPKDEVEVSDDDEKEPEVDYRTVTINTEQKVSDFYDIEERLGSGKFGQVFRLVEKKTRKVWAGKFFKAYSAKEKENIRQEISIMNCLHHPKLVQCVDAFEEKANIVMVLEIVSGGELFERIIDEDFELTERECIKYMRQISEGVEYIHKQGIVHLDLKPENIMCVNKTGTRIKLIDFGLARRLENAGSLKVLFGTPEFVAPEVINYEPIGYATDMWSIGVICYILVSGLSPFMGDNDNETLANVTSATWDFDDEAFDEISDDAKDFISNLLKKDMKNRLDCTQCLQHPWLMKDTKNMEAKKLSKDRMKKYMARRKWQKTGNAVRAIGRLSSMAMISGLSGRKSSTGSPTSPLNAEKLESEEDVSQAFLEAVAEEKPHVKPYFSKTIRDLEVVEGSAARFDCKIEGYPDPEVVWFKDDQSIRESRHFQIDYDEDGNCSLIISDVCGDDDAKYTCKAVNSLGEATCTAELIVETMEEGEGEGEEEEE
Sequence of NADH dehydrogenase [ubiquinone] 1 alpha subcomplex subunit 13 (Q9P0J0 whole entry, one chain of several): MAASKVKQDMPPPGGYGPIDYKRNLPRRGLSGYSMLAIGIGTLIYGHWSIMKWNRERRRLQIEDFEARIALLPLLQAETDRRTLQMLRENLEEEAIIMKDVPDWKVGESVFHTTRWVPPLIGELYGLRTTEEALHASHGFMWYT

As to `C=CC(=O)N1CCC[C@H](n2c(=O)n(-c3ccc(Oc4ccccc4)cc3)c3c(N)ncnc32)C1`, the Kd (in [1]; in test [2]; in test [3]; in [4]; in test [5]; at Septin-9) was > 30 µM (inactive) in each case. The Kd (on ADP/ATP translocase 3; in test [7]; on TGF-beta receptor type-2) was > 30 µM (inactive) throughout. Also, the pKd in test [6] was 7.60.

In the case of `Cc1nc2cc(-c3nn(C(C)C)c4ncnc(N)c34)ccc2o1`, the Kd in test [1] is > 30 µM (inactive); in test [2], > 30 µM (inactive); in [3] it was > 30 µM (inactive); in [4] it was > 30 µM (inactive); in [5], > 30 µM (inactive); in test [6] it was 2.1 µM (active). Besides, the Kd (at Septin-9; on ADP/ATP translocase 3; in test [7]; on TGF-beta receptor type-2) was > 30 µM (inactive) each time.

Consider `COCc1c(-c2ccc(NC(=O)Nc3cc(C(F)(F)F)ccc3F)c(F)c2)c2c(N)ncnn2c1CN1CCOCC1`, for which the Kd in test [1], in test [2], in [3], in [4], in test [5] and in test [6] was > 30 µM (inactive) throughout. For the same compound, the Kd (on Septin-9; at ADP/ATP translocase 3; in [7]; at TGF-beta receptor type-2) was > 30 µM (inactive) each time.

Regarding `Nc1ncnc2c1c(-c1cccc(OCc3ccccc3)c1)cn2[C@H]1C[C@@H](CN2CCC2)C1` [AEW-541], the Kd in [1] is > 30 µM (inactive); in test [2], > 30 µM (inactive); in [3] it was > 30 µM (inactive); in [4], > 30 µM (inactive); in [5] it was > 30 µM (inactive); in test [6], 1.94 µM (active). Also, the Kd (at Septin-9; at ADP/ATP translocase 3; in test [7]; on TGF-beta receptor type-2) was > 30 µM (inactive) in each case.

Regarding `Cc1csc(-c2nnc(Nc3ccc(Oc4ncccc4-c4ccnc(N)n4)cc3)c3ccccc23)c1` [AMG-900], the Kd was 3.22 µM (active) in [1]; > 30 µM (inactive) in test [2]; > 30 µM (inactive) in test [3]; > 30 µM (inactive) in test [4]; > 30 µM (inactive) in [6]; > 30 µM (inactive) on Septin-9. The Kd (on ADP/ATP translocase 3; in test [7]; on TGF-beta receptor type-2) was > 30 µM (inactive) each time.

For `C=CC(=O)Nc1cc2c(Nc3ccc(F)c(Cl)c3)ncnc2cc1C#CC(C)(C)N1CCN(C)CC1` [AV-412 FREE BASE], the Kd in [1], in test [2], in test [3], in test [4], in [5] and in test [6] was > 30 µM (inactive) in each case. Moreover, the Kd on Septin-9 is > 30 µM (inactive); at ADP/ATP translocase 3, > 30 µM (inactive); in test [7], 13.4 µM (active); at TGF-beta receptor type-2, > 30 µM (inactive).

`NC(=O)Nc1cc(-c2cccc(F)c2)sc1C(=O)N[C@H]1CCCNC1` [AZD-7762]: the Kd in test [1] is > 30 µM (inactive); in test [2] it was > 30 µM (inactive); in [3] it was 0.475 µM (active); in test [4], > 30 µM (inactive); in test [5], > 30 µM (inactive); in test [6], 1.37 µM (active). The Kd at Septin-9 was > 30 µM (inactive); on ADP/ATP translocase 3 it was > 30 µM (inactive); in test [7], 1.09 µM (active); on TGF-beta receptor type-2, > 30 µM (inactive).

As to `Cc1cc(C(=O)NOCCO)c(Nc2ccc(I)cc2F)n(C)c1=O` [AZD-8330], the Kd in test [1], in test [2], in [3], in test [4], in test [5] and in test [6] was > 30 µM (inactive) throughout. Moreover, the Kd (at Septin-9; on ADP/ATP translocase 3; in [7]; on TGF-beta receptor type-2) was > 30 µM (inactive) in each case.

On to `Cn1cnc2c(F)c(Nc3ccc(Br)cc3F)c(C(=O)NOCCO)cc21` [BINIMETINIB], for which the Kd in [1], in test [2], in [3], in [4], in test [5] and in test [6] was > 30 µM (inactive) each time. Also, the Kd (at Septin-9; at ADP/ATP translocase 3; in [7]; at TGF-beta receptor type-2) was > 30 µM (inactive) throughout.

Consider `CCn1c(C(=O)N(C2CC2)C2CC2)cc2c3c(ncn3C)c(Nc3cc(C)n(C)n3)nc21` [BMS-911543], for which the Kd in test [1], in test [2], in test [3], in test [4], in test [5] and in test [6] was > 30 µM (inactive) throughout. The Kd (on Septin-9; on ADP/ATP translocase 3; in [7]; on TGF-beta receptor type-2) was > 30 µM (inactive) in each case.

On to `CO[C@H]1C[C@@H]2CC[C@@H](C)[C@@](O)(O2)C(=O)C(=O)N2CCCC[C@H]2C(=O)O[C@H]([C@H](C)C[C@@H]2CC[C@@H](O)[C@H](OC)C2)CC(=O)[C@H](C)/C=C(\C)[C@@H](O)[C@@H](OC)C(=O)[C@H](C)C[C@H](C)/C=C/C=C/C=C/1C` [SIROLIMUS], for which the Kd (in test [1]; in [2]; in [3]; in test [4]; in test [6]; at Septin-9) was > 30 µM (inactive) throughout. Besides, the Kd (on ADP/ATP translocase 3; in test [7]; at TGF-beta receptor type-2) was > 30 µM (inactive) in each case.

Values taken from ChEMBL document CHEMBL3991601, “The target landscape of clinical kinase drugs” (Science, 2017).
